Test results from publication PMC4778918, “Signal Transduction at the Domain Interface of Prokaryotic Pentameric Ligand-Gated Ion Channels” (PLoS Biology, 2016).

Tests used:
[1] = target: ELIC T28D (Dickeya chrysanthemi, UniProt P0C7B7, INS163G/T28D); experiment: biochemical; type: binding, Erwinia chrisanthemi; conditions: read-out: Keff
[2] = target: ELIC WT (Dickeya chrysanthemi, UniProt P0C7B7, INS163G); experiment: biochemical; type: binding, Erwinia chrisanthemi; conditions: ITC, ELIC WT in detergent (UDM), 4°C, single-site isotherm; read-out: effective dissociation constant (Keff)

Structure (SMILES): CC(=O)OCC[N+](C)(C)C [acetylcholine]
- Kd [1]: 2000 µM
- Kd [2]: 2500 µM
